According to patent publication US9969709B2, “Guanidinobenzoic acid ester compound” (Takeda Pharmaceutical Company Limited, priority 2013, dated 2018):
Counter-ions that a name gives are not always drawn.

What was measured:
[1] = target: T1, human recombinant trypsin (rh-trypsin) (Homo sapiens, UniProt P07477); test: Trypsin inhibitory activity, human recombinant trypsin, BZiPAR fluorescent substrate; assay type: biochemical; settings: 30 min at room temperature, read-out: r-h Trypsin inhibitory activity (IC50)
T1 construct: purchased Wako Pure Chemical Industries, Ltd. 206-17171
Protocol: (§1) 1. Confirmation of Trypsin Inhibitory Activity in Humans and Mice In the experiment, human recombinant trypsin (rh-trypsin; manufactured by Wako Pure Chemical Industries, Ltd.), cat. #206-17171) and mouse trypsin (m-trypsin; purified from the mouse small intestine contents by the present inventors) were used. The method for purifying m-trypsin from the contents of the mouse small intestine is shown below. The compound was dissolved in dimethyl sulfoxide (DMSO), and diluted to an arbitrary concentration (A). A was 100-fold diluted with a buffer (0.1 M Tris (pH 8.0), 0.15 M NaCl, 10 mM CaCl2, 0.05% Brij35) (B). The rh-trypsin was diluted with a buffer to 0.088 μg/mL, and for the m-trypsin, the purified fraction liquid was 50-fold diluted with the buffer (C). […] A BZiPAR solution (Rhodamine Reference Substrate) which is substrate for the trypsin enzyme was diluted with the buffer to […] (D). 5 μL of B, 5 μL of C, and 10 μL of D were added to a 384-well plate, and incubated at room temperature for 30 minutes. Fluorescent signals were detected at a maximum excitement (Ex)/fluorescent wavelength (Em)=497 nm/520 nm using a Tecan Safire Fluorometer. […] Based on the obtained inhibitory rates, the trypsin inhibitory activities (IC50 values, nM) were calculated from the non-linear regression.

[2] = test system: T2, mouse trypsin (m-trypsin); test: Trypsin inhibitory activity, mouse trypsin purified from small intestine contents, BZiPAR fluorescent substrate; assay type: biochemical; settings: 30 min at room temperature
T2 construct: mouse trypsin (m-trypsin)
Excerpt: 1. Confirmation of Trypsin Inhibitory Activity in Humans and Mice
In the experiment, human recombinant trypsin (rh-trypsin; manufactured by Wako Pure Chemical Industries, Ltd.), cat. #206-17171) and mouse trypsin (m-trypsin; purified from the mouse small intestine contents by the present inventors) were used. The method for purifying m-trypsin from the contents of the mouse small intestine is shown below.
The small intestine contents and the gastrointestinal tract obtained from 10 mice were homogenized in phosphate buffer saline (PBS) using Polytron, and subjected to centrifugation several times at 15,000×g for 10 minutes. The supernatant was mixed at 4° C. for 16 hours with a Benzamidine Sepharose 4 Fast Flow Resin (GE Healthcare: #17-5123-10). After washing the resin with PBS, m-trypsin was eluted with a glycine buffer (pH 3.0) to carry out purification. It was confirmed by Western blot analysis that the obtained purified fraction was recognized as an Anti-mouse Trypsin Antibody (Santa Cruz Biotechnology, Inc.: sc-67388). The method for measuring the trypsin inhibiting activity is shown below.
as §1, with “The” for “1. Confirmation of Trypsin Inhibitory Activity in Humans and Mice In the experiment, human recombinant trypsin (rh-trypsin; manufactured by Wako Pure Chemical Industries, Ltd.), cat. #206-17171) and mouse trypsin (m-trypsin; purified from the mouse small intestine contents by the present inventors) were used. The method for purifying m-trypsin from the contents of the mouse small intestine is shown below. The”

ICR mice = test: Test of increase in fecal protein concentration using mice; assay type: in vivo, mouse; settings: Mus musculus, po, 9 h, 5 mg/kg oral, male ICR mice, feces collected 3 to 9 hours after feeding started, control group = 1; read-out: Fecal protein, Folds (vs. control)
Protocol: 2. Test of Increase in Fecal Protein Concentration Using Mice
For the experiment, 6-week old male ICR mice were used. The experiment was carried out in five mice per group. After fasting the mice for 15 hours, the control group was forcibly orally administered with a 0.5% methyl cellulose (MC) solution, and the test drug group was forcibly orally administered (5 mg/kg) with a solution or suspension obtained by dissolving or suspending the compound in the 0.5% MC solution. The fasting was stopped immediately thereafter, free feeding (CE-2) was started, and then the feces were collected from after 3 hours to after 9 hours, and weighed. All of the obtained feces were suspended in 6 mL of distilled water, and centrifuged at 1,940×g for 10 minutes. The protein concentration in the obtained supernatant was measured by a Bradford method, and the amount of the protein in 1 g of feces was calculated by dividing the protein concentration in the feces by the total weight of feces. Further, the efficacy was investigated from the ratio to the control group. For the compounds that were evaluated multiple times, the average values were calculated.
The results of the activities with an increase in Fecal Protein, assuming a value for the control group as 1, are shown in Table 2.

Wistar rats = test: Rat uninephrectomy doxorubicin (DXR)-induced nephropathy model (renal function reduced model); assay type: in vivo; settings: 10 mg/kg oral twice daily, week 3, vs control group
Protocol: 3. Test of Rat Uninephrectomy Doxorubicin (DXR)-Induced Nephropathy Model (Renal Function Reduced Model) Uninephrectomy was performed in the left kidney of 10-week old male Wistar rats, and one week later, DXR (5 mg/kg) was administered to the rats via the caudal vein to induce a nephropathy model. The experiment was carried out in ten rats per group. During the period of administering the compound, the rats were fed with diet only in daytime, while fasted in nighttime. A test compound (10 mg/kg) was suspended in a 0.5% methylcellulose (MC) solution from the day after the preparation of the model, and was forcibly orally administered twice (morning and night) daily. To each of a sham (normal) group and a control group, 0.5% MC was forcibly orally administered. At 1, 2, and 3 weeks after the start of administration of the test compound, 24-hour urine collection was each performed to measure the amount of the protein excretion in urine. Blood collection was performed after the end of the urine collection at week 3, and the concentration of creatinine in plasma was measured.

IC50 [1] [nM] | IC50 [2] [nM] | SMILES | response vs control in vivo at 5 mg/kg (ICR mice) [%] | inhibitory rate of the amount of protein excretion in urine (Wistar rats) | inhibitory rate of the creatinine concentration in plasma (Wistar rats)
0.4 | 0.51 | Cl.N=C(N)Nc1ccc(C(=O)Oc2ccc3c(c2)CCCC3CC(=O)N(CC(=O)O)Cc2cccc(C(=O)O)c2)cc1 (centres unmarked) [Example 2, 3-{[({6-[(4-carbamimidamnidobenzoyl)oxy]-1,2,3,4-tetrahydronaphthalen-1-yl}acetyl)(carboxymethyl)amino]methyl}benzoic acid monohydrochloride] | 255 | about 42% | about 42%
0.43 | 0.61 | N=C(N)Nc1ccc(C(=O)Oc2ccc3c(c2)CCC(C(=O)N(CC(=O)O)Cc2csc(C(=O)O)c2)C3)cc1 (centres unmarked) [Example 4, 4-{[({6-[(4-carbamimidamidobenzoyl)oxy]-1,2,3,4-tetrahydronaphthalen-2-yl}carbonyl)(carboxymethyl)amino]methyl}thiophene-2-carboxylic acid monohydrochloride] | 262 |  | 
0.21 | 0.17 | N=C(N)Nc1ccc(C(=O)Oc2ccc3c(C(=O)N(CC(=O)O)Cc4ccc5sc(C(=O)O)cc5c4)cccc3c2)cc1 [Example 34] | 207 |  | 
0.26 | 0.23 | C[C@H](C(=O)O)N(Cc1csc(C(=O)O)c1)C(=O)c1csc2cc(OC(=O)c3ccc(NC(=N)N)cc3)ccc12 [Example 29] | 143 |  | 
